From patent US9073858B2, “Methods of targeted drug development” (priority 2010, dated 2015)
Where two headings read alike, the source gives them in different places.

Legend:
MDBK line = assay: MTT Cell Proliferation Assay, MDBK line; format: cell-based, bovine
Description: (§1) The following example describes the MTT Cell Proliferation Assay.
(§2) The MTT Cell Proliferation Assay is a colorimetric assay system that measures the reduction of the tetrazolium salt MTT (3-(4,5-dimethylthiazol-2-yl)-2,5-diphenyltetrazolium bromide) into insoluble formazan crystals, produced by the mitochondria of viable cells. […] The color can then be quantified by spectrophotometric means. Among the applications for the method are drug sensitivity, cytotoxicity, response to growth factors, and cell activation. The reduction of tetrazolium salts is now recognized as a safe, accurate alternative to radiometric testing.
(§3) Two replicates on each cell plate and 2 duplicate plates gave 4 individual replicates of each concentration, in each cell line. Concentrations were diluted in 100% DMSO from 25 mM stocks.
(§4) Twelve 96 well plates of each cell line were plated. Plating was done by dislodging cells as in passage protocol, counting on a hemocytometer, re-suspending in standard growth media, and plating using a multichannel pippetor.
(§5) 16 μl of 25 mM stock+34 μl DMSO=8 mM starting concentrations, and serial diluted as with test compounds in same plate. […] Two replicates of each concentrations was run on each cell plate. All compound addition and cell treatments were done using aseptic technique under a laminar flow aseptic hood.
(§6) Control: 0.5% DMSO in treatment media was used as the control.
(§7) MTT dye (Thiazolyl Blue Tetrazolium Bromide, Sigma cat # M5655) stock was prepared in bulk and stored at 4° C. for use: 5 mgs/ml sterile PDS, shielded from light. 4 ul of this stock per 100 uls treatment media per well was used.
(§8) Plates were incubated overnight prior to treatment, with treatment day=Day 0. Compound treatments were prepared prior to washing cells to minimize time cells were dry at room temperature after final aspiration. Compounds were diluted in 100% DMSO in 96 well polypropylene plates:40 μl 25 mM stock+10 μl DMSO=20 mM; 20 μl of 20 mM+30 μl DMSO=8 mM; 20 μl of 8 mM+30 μl DMSO=3.2 mM; 20 μl of 3.2 mM+30 μl DMSO=1.3 mM; 20 μl of 1.3 mM+30 μl DMSO=0.51 mM.
(§9) 5.0 μl/ml were added to treatment media, in sterile, 2.2 ml deep well plates=0.5% dmso final. Ten μl of each dmso concentration was added to 2.0 ml of treatment media and then mixed using a 1200 μl multichannel pipettor. Cell plates were treated from the deep well plates. Treatment media was standard growth media containing 0.5% FBS and standard additions. This reduced FBS concentration allowed for a slower growth rate in cells.
(§10) Media was aspirated from cell plates, and washed with 200 μl/well sterile PBS. Aspirated PBS wash, and cell plates were treated with 200 μl of compound/treatment media per well, and incubated at 37° C., 5% CO2 for 3 days.
(§11) Prior to harvesting, visual observations were made under an inverted microscope. Plates were harvested by: aspirating the growth media; adding back MTT dye/100 μl treatment media; and incubating plates at 37° C. for 1 hour. MTT dye was aspirated. 100 μl/well dmso was added, and then shaken on a Bellco plate shaker for 5 minutes, at 4.5 setting.
(§12) Plates were read in a Tecan Sunrize UV plate reader, at 560 nm. Settings: Read mode, Outside Normal 2 sec; Shake settle time 3 sec. Data is reported as % inhibition, calculated for individual plates using control values from that plate.

[1] = test system: epithelial carcinoma A431 cell line; assay: MTT Cell Proliferation Assay, A431 cell line; format: cell-based; settings: for MTT-72 h A431/MDBK (ratio) / MTT (10 Point follow-up) ratio: value in brackets; for MTT-72 h A431/MDBK (ratio): numerically MDBK value over A431 value; for MTT (10 Point follow-up) ratio: numerically MDBK over A431
Description: as §1, §2, §3, §4, §5, §6, §7, §8, §9, §10, §11, §12

EGFR = biological target: T1, EGFR (Homo sapiens, UniProt P00533); assay: EGFR in-cell Western (ICW) screening protocol; format: cell-based; parameters: unit not given here; settings: for ICW Screen: initial screen
T1 construct: endogenous in cells; host or cells: A431 cells (ATCC CRL-1555)
Protocol: The following example describes general EGFR in-cell Western (ICW) screening protocol.
Two cell plates were prepared for each compound plate.
Serum Starvation: The cells were serum starved prior to compound addition. […] The cell plates were incubated at 37° C./5% CO2 for 2 hours.
Prepared compound plates were stored at RT prior to use and at 4° C. long term.
Compound Dilution Plate Preparation: 250 μl of DMEM supplemented with 1 mg/ml BSA (Sigma A3059-10G) was added to the appropriate wells of a 96 well plate to prepare the compound dilution plates. Using a multichannel pipettor, 1.25 μl of compound from the compound plate was transferred into the compound dilution plate.
Compound Addition: The starve media was removed from the cell plates by aspiration. Using a multichannel pipettor, the compound dilution plates were mixed by pipetting up and down three times. 50 μl of mixed, diluted compound was added to each of two rows/columns on each of two cell plates. The cell plates with compound were incubated at 37° C./5% CO2 for 4 hours.
50 μl of 20 or 0 ng/ml EGF was added to the appropriate wells without the removal of compound. The compound and EGF were mixed by pipetting up and down three times.
The plates were incubated at RT for 20 min without shaking. The Fixation Solution was removed by aspiration and the plates washed four times with 200 μl each of Triton Wash Solution (1×PBS, Sigma P3813-10PK, and 0.1% Triton X-100, T8787-50ML) for 5 min with gentle shaking.
The block was removed by aspiration and 50 μl of diluted primary Ab mix was added. The plates were incubated at 4° C. overnight with gentle shaking. The plates were washed five times with 200 μl of PBST (1×PBS, Sigma P3813-10PK, and 0.1% Tween-20, Sigma P9416-50ML) for 5 min each with shaking. 50 μl of diluted secondary Ab mix was added and the plates incubated at RT for 1 h with shaking. The plates were washed 5× with 200 μl of PBST for 5 min each with shaking. One final wash with 200 μl of PBS (Sigma P3813-10PK) for 5 min with shaking was performed prior to scanning.
In some screening assays, the dilution of the secondary Ab conjugates was 1/800 rather than 1/1200.
Plate Scanning: The plates were scanned on an Odyssey Infrared Imaging System from LI-COR Biosciences. The focus offset was set at 3.5 mm and the scanning intensity set at 3 for the 700 channel and 7 for the 800 channel.
Data Analysis: The % of Maximum and % Inhibition values were calculated as follows. 700 Channel=signal for total EGFR (used to control for variation in cell number). 800 Channel=signal for phosphorylated EGFR. 800−EGF=basal level EGFR phosporylation+non-specific signal (no compound). 800+EGF=800−EGF+EGF dependent EGFR receptor phosphorylation (no compound). 700/800com=700 or 800 channel signals with compound. % Maximum={[(800com/700com)−(800−EGF/700−EGF)]/[(800+EGF/700+EGF)−(800−EGF/700−EGF)]}×100%. % Inhibition=100%−(% Maximum).

[2] = Bos taurus, MDBK, 72 h, second value of A431/MDBK pair, read-out: MTT-72 h MDBK
[3] = Homo sapiens, A-431, 72 h, 72 h, first value of A431/MDBK pair, read-out: MTT-72 h A431
[4] = Bos taurus, MDBK, 10 point follow-up, second value of pair, read-out: MTT (10 Point follow-up) MDBK
[5] = Homo sapiens, A-431, 10 point follow-up, first value of pair, read-out: MTT (10 Point follow-up) A431

T1 sequence (P00533 25-1210): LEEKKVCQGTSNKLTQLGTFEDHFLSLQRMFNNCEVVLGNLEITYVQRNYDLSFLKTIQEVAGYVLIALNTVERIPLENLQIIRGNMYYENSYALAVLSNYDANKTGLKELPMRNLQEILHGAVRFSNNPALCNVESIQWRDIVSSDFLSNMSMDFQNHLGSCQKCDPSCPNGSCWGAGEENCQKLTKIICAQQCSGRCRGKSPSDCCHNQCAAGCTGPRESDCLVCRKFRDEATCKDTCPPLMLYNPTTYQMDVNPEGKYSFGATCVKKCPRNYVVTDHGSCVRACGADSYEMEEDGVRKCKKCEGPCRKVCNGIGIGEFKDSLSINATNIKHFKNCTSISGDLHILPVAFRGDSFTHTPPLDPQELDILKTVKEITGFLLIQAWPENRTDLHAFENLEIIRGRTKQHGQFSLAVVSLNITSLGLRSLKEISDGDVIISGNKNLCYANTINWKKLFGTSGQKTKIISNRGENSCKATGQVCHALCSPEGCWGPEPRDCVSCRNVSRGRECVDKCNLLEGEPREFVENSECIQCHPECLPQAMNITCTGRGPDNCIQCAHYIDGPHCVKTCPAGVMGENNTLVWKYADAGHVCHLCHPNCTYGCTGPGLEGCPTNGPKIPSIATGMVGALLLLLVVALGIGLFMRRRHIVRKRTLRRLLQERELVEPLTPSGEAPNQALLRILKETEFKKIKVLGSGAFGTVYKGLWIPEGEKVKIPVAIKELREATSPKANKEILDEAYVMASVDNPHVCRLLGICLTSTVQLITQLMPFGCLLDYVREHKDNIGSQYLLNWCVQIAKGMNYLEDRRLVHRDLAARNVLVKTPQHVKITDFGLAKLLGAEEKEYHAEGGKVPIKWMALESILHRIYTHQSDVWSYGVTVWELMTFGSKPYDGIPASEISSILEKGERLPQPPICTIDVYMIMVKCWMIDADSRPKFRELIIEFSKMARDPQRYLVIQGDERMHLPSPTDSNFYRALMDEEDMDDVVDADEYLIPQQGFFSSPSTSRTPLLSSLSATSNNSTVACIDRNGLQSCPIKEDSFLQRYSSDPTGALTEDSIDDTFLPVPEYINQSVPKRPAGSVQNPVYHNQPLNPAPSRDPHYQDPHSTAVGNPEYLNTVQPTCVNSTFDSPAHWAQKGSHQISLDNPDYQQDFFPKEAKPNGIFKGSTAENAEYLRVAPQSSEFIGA

Compound	IC50 (MDBK line; [2]) [µM]	MTT-72 h A431/MDBK (ratio) ([1]; 72 h)	IC50 [1, 3] [µM]	ICW Screen (EGFR)	ICW Re-Test (EGFR)	IC50 (MDBK line; [4]) [µM]	MTT (10 Point follow-up) ratio ([1]; 10 point follow-up)	IC50 [1, 5] [µM]	IC50 (MDBK line; 10 point follow-up, second value of pair, read-out: MTT (10 Point follow-up) MDBK) [µM]	IC50 ([1]; 10 point follow-up, first value of pair, read-out: MTT (10 Point follow-up) A431) [µM]	MTT-72 h % Max ([1]; 72 h, maximal effect printed after the ratio) [%]
COc1ccc(C(Nc2cc(C)ccn2)c2ccc3cccnc3c2O)cc1O (centres unmarked) [compound 1978]	10.7	1.47	7.3	63.53	41.95						
O=[N+]([O-])c1ccccc1C(Nc1ccccn1)c1ccc2cccnc2c1O (centres unmarked) [compound 10042]	1.49	1.00	1.49	47.99	−8.06	6.63	0.69	9.62			
Oc1c(C(Nc2ccccn2)c2ccc(Cl)cc2Cl)ccc2cccnc12 (centres unmarked) [compound 10484]	0.85	2.70	0.32	26.3			2.12		0.679	0.305	
Cc1ccc(NC(c2ccccc2O)c2ccc3cccnc3c2O)nc1 (centres unmarked) [compound 10430]	5.58	0.86	6.47	43.81	48.57						
Oc1c(C(Nc2ccc(OC(F)F)cc2)c2ccccn2)ccc2cccnc12 (centres unmarked) [compound 11072]	21.1	0.49	43.2	44.06	36.82						12
Cc1ccnc(NC(c2ccccn2)c2ccc3cccnc3c2O)c1 (centres unmarked) [compound 10939]	6.78	1.20	5.67	32.68	33.81						
Cc1cccc(NC(c2cccc(C)n2)c2ccc3ccc(C)nc3c2O)n1 (centres unmarked) [compound 10976]	19.7	0.78	25.1	33.22	21.78						
Cc1ccccc1C(Nc1ccccn1)c1ccc2cccnc2c1O (centres unmarked) [compound 10019]	5.25	0.98	5.35	33.75		3.21	0.71	4.49			
COc1cc(C(Nc2ccccn2)c2cc(Cl)c3cccnc3c2O)cc(Br)c1O (centres unmarked) [compound 10087]	5.79	1.11	5.23	62.13	41.13	5.55	1.18	4.7			
Oc1c(C(Nc2ccccn2)c2ccc(OC(F)F)cc2)ccc2cccnc12 (centres unmarked) [compound 10466]	0.95	1.31	0.73	17.15		0.775	1.08	0.717			
COc1ccccc1NC(c1cccnc1)c1ccc2cccnc2c1O (centres unmarked) [compound 11102]	7.66	1.04	7.39	44.31	39.06						
